How the values were obtained:
D3 ES cells = assay: Media formulation evaluation assay: ES cell colony morphology, alkaline phosphatase staining and plating efficiency; type: cell-based, mouse; conditions: for general plating efficiency and number of undifferentiated ES colonies with or without the component: component added to serum-free formulation (15% in DMEM): 15 μg/L ferric citrate, 0.3 μg/L glycl-histidyl-lysine, 300 μg/L ethanolamine
Experimental: ES D3 ES cells were used (Doetschman, T. C. et al., J. Embryol. Exp. Morph. 87:27-45 (1985)). Unless otherwise specified, D3 cells at passage 15 were used. Trypsin-EDTA (0.25%, 1 mM) was used to remove cells from plates after rinsing the cell layer with phosphate buffered saline (PBS). Cells were cultured in a humidified 37° C., 10% CO2 incubator.
The protocol for a media formulation evaluation assay was as follows. The source of ES cells for the experiments was a sub-confluent dish of ES cells maintained on a feeder layer in ES cell medium with LIF. Feeder layers for experimental conditions were established in 6 well plates (NUNC) by seeding 3-5×10^4 feeder cell/cm^2 and allowing the cells to attach. ES cells were trypsinized to form a cell suspension. Trypsin activity was quenched with serum-supplemented medium, and cells were pelleted by centrifugation at 500× g. The medium was removed and the ES cells were resuspended in DMEM containing 2 mM L-glutamine, 50 U/mL penicillin, 50 ug/mL streptomycin, 100 uM NEAA, and 100 uM 2-mercaptoethanol (final concentrations).
ES cells were then mixed with respective test media (described infra) at a concentration of […]. Feeder cell media was then removed from the feeder plates, and the feeder layers were washed once with 2 mL of DMEM (that was not supplemented with serum or any other additives). 2.5 mL of test medium and ES cells (225/well) were added to each well of feeder cells. Test conditions were assayed in triplicate (3 wells/test condition). The cells were incubated for 7 days while observations were made regarding ES cell growth parameters. Incubation conditions were 37° C., 10% CO2 in air, and humidified atmosphere.
At the end of the 7 day culture period, observations were made and then ES cells were harvested, fixed and assayed for the presence of alkaline phosphatase by using a histochemical assay (Sigma diagnostic kit 86-R, Sigma, St. Louis, Mo.). Cells were fixed and assayed according to the manufacturer's directions. In this assay, cells which express alkaline phosphatase stain dark pink or red. ES cell colonies were rated in terms of morphology and strength of alkaline phosphatase staining according to the following parameters. Class I colonies are round, stain dark pink, and have the desired, undifferentiated colony morphology characterized by a well-defined colony border. Class II colonies are those that have begun to differentiate, are stained at least 60% pink, and have a more flattened appearance, with a poorly defined border. […] Plating efficiency was determined by dividing the total number of colonies obtained by the input number of ES cells (225/well).

feeder cells = assay: Feeder layer morphology in ES cell cultures; type: cell-based; conditions: AAP 50 mg/L, independent of LIF
Excerpt: One aspect of the supplement that was sub-optimal related to the morphology of the feeder layer in ES cell cultures maintained in the same culture vessel for more than three days. Generally, ES cells are passaged every two to three days. Typically, during selection of antibiotic-resistant ES cells, cultures are maintained without passaging for ten or more days. […] The detached cells were seen floating in the growth medium.
In order to improve the formulation, the addition of L-ascorbic acid-2-phosphate to the formulation was evaluated. In an evaluation assay (as in Example 1), the medium was supplemented with the serum-free supplement (to a fmal concentration of 15%), either with or without L-ascorbic acid-2-phosphate (50 mg/L final concentration), and 10 ng/mL LIF (final concentration).
The numbers within parentheses indicate what percentage of total ES cell colonies that the colonies with the indicated degree of differentiation represented. In Table 4, “good” feeder cell morphology reflects a more fibroblast-like character and smooth borders, rather than a spindly, ragged-looking character.

## O=C1O[C@H]([C@@H](O)CO)C(O)=C1OP(=O)(O)O [L-ascorbic acid-2-phosphate]
D3 ES cells; factor alone
  effect on plating efficiency: little effect
D3 ES cells; in the absence of LIF
  colony size: much improved
  percent of class I colonies: increased
  percent of class III colonies: decreased
D3 ES cells; with LIF in the culture media
  average colony size (an indication of growth rate): increase
  effect on the morphology class of colonies obtained: virtually no effect
Feeder cells
  appearance of the feeder layer: improved

## NCCO [ethanolamine]
D3 ES cells
  general plating efficiency and number of undifferentiated ES colonies with or without the component: no different

## ferric citrate
D3 ES cells
  general plating efficiency and number of undifferentiated ES colonies with or without the component: no different

## glycl-histidyl-lysine
D3 ES cells
  general plating efficiency and number of undifferentiated ES colonies with or without the component: no different

Source: patent publication US20020076747A1, “Method for expanding embryonic stem cells in serum-free culture” (priority 1997, published 2002)
